Results on 9 molecules are retold here after PubChem BioAssay (NCI).

Common to all, as to test: DTP human tumour cell line panel, 48 h
Test [1] has as its system 786-0 renal.
Test [2] deals with BT-549 breast.
Test [3] deals with HCC-2998 colon.
The subject of test [4] is HCT-116 colon.
Test [5] relates to NCI-H226 lung.
In test [6] the test system is OVCAR-8 ovarian.
Test [7] relates to SK-MEL-5 melanoma.
The test system of test [8] is SNB-75 CNS.
Test [9] deals with U251 CNS.
Test [10] relates to UACC-257 melanoma.

“And” between values parts separate entries of the source, which are not always exact repeats. Equal values may be shown once.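 These data come from cells grown in 96-well plates and exposed to compound for 48 hours at five concentrations. GI50: concentration for 50% inhibition of growth. At the TGI there is no net growth.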

Consider `CC1CCC2C(C)C(=O)OC3OC4(C)CCC1C32OO4` (stereo not drawn), for which the GI50 in [1], in test [5], in test [6], in test [9] and in [10] was above 100 µM each time. Moreover, the TGI in test [1], in test [2], in test [3], in [4], in [5] and in [6] was above 100 µM throughout. In addition, the TGI in [7] is above 100 µM; in [8], above 97.2 µM; in test [9], above 100 µM; in test [10] it was above 100 µM.

For `CCn1c(-c2nonc2N)nc2c(C#CC(C)(C)O)ncc(OC3CCNCC3)c21`, the GI50 is 6.79 µM in [1]; 8.78 µM in test [2]; 7.08 µM in test [3]; 8.15 µM in test [4]; 23.3 µM in [5]; 12.9 µM in test [6]. Further, the GI50 in [7] is above 20.1 µM; in test [8], 1.42 µM; in test [9], 3.74 µM; in test [10] it was above 25 µM. In addition, the TGI in test [1], in test [2], in test [3], in test [4], in test [5] and in test [6] was above 25 µM in each case. Besides, the concentration for total growth inhibition (TGI) in test [7], in test [8], in test [9] and in test [10] was above 25 µM in each case.

Turning to `O=C(O)CCCCn1ccc(=O)[nH]c1=O`, the concentration for total growth inhibition (TGI) in [1], in test [2], in test [3], in [4], in test [5] and in [6] was above 100 µM throughout. Also, the TGI in [7], in [8], in test [9] and in [10] was above 100 µM each time.

Consider `CS(=O)(=O)CCNCc1ccc(-c2ccc3ncnc(Nc4ccc(OCc5cccc(F)c5)c(Cl)c4)c3c2)o1`, for which the GI50 is > 10 µM and 4.43 µM and 5.46 µM in [1]; > 10 µM and 19.7 µM and 7.43 µM in [2]; > 10 µM and 4.1 µM and 8.86 µM in test [3]; > 10 µM and 7.19 µM and 10.3 µM in test [4]; > 10 µM and > 100 µM and 25 µM in test [5]; 6.83 µM and 4.17 µM and 4.12 µM in test [6]. Also, the GI50 in test [7] is 3.21 µM and 4.34 µM; in test [8], > 10 µM and 4.33 µM and 8.75 µM; in test [9], > 10 µM and 6.7 µM and 9.36 µM; in test [10] it was > 10 µM and 1.97 µM and 3.1 µM. Further, the TGI was > 10 µM and > 42.3 µM and 29.2 µM in [1]; > 10 µM and > 47.5 µM and 44.7 µM in [2]; > 10 µM and 17.8 µM and 24.2 µM in test [3]; > 10 µM and > 100 µM and 23.6 µM in test [4]; > 10 µM and > 100 µM and 86.7 µM in test [5]; > 10 µM and > 100 µM and 32.2 µM in test [6]. Also, the total growth inhibition concentration (TGI) is 22.9 µM and 15.4 µM in [7]; > 10 µM and 35.5 µM and 44.2 µM in test [8]; > 10 µM and > 100 µM and 24.9 µM in [9]; > 10 µM and 3.75 µM and 6.52 µM in test [10].

For the molecule `O=C([O][Hg][c]1ccccc1)c1ccccc1`, the GI50 in test [1] was 1.81 µM; in test [2], 1.23 µM; in test [3] it was 2 µM; in test [4], 1.45 µM; in [5], 2.41 µM; in test [7] it was 1.53 µM. In addition, the GI50 in [8] is 1.23 µM; in test [9], 1.38 µM; in test [10], 1.38 µM. Also, the concentration for total growth inhibition (TGI) in test [1] is 3.5 µM; in test [2], 2.64 µM; in test [3], 3.82 µM; in test [4], 2.99 µM; in test [5], 6.18 µM; in test [7] it was 3.06 µM. Moreover, the concentration for total growth inhibition (TGI) in test [8] turned out to be 3.63 µM; in test [9], 2.8 µM; in test [10], 3.03 µM.

With `COc1cc2c(NCCCCCO)ncnc2c(OC)c1OC`, the total growth inhibition concentration (TGI) in test [1], in [2], in test [3], in [4], in test [5] and in test [6] was above 100 µM throughout. Besides, the TGI in [7], in [8], in test [9] and in [10] was above 100 µM in each case.

Take `COc1cc(OC)cc(Oc2cnc3cc(N)cc(N)c3n2)c1`: the GI50 is 15.2 µM in test [1]; 17.2 µM in test [2]; 14.6 µM in [3]; 6.47 µM in test [4]; 17.1 µM in test [5]; 22.6 µM in test [6]. Besides, the GI50 in [7] is 15.3 µM; in test [8] it was 3.92 µM; in test [9], 15.5 µM; in test [10], 18 µM. Besides, the concentration for total growth inhibition (TGI) in test [1] is 29 µM; in test [2], 39.2 µM; in [3], 28.8 µM; in test [4], 20.2 µM; in test [5] it was 38 µM; in test [6], 52.5 µM. The TGI in test [7] was found to be 29.3 µM; in test [8] it was 18.6 µM; in test [9], 28.8 µM; in [10], 33.7 µM.

For the molecule `CC(=O)OCC12CN(C#N)C3C4COC(CC41)C1(C(=O)N(C)c4ccccc41)C32` (stereo not drawn), the concentration for total growth inhibition (TGI) was above 100 µM in test [1]; 10.5 µM in [2]; 86.6 µM in [3]; 40.7 µM in test [4]; 49.5 µM in test [5]; 55 µM in test [6]. In addition, the concentration for total growth inhibition (TGI) is 86.3 µM in [7], 91.4 µM in test [8], above 100 µM in test [9] and 51.8 µM in test [10].

Turning to `COc1ccc(-c2cc(/C=C3\C(=O)Nc4cc(Cl)ccc43)[nH]n2)cc1`, the GI50 in test [1] was 9.71 µM; in test [2], 7.02 µM; in test [3], 8.72 µM; in test [4], 3.63 µM; in [5], 13.1 µM; in [6] it was 4.55 µM. The GI50 is 1.9 µM in test [7], 1.78 µM in test [8], 3.46 µM in test [9] and 26.3 µM in [10]. The TGI in [1] is above 100 µM; in test [2] it was 62 µM; in test [3], 68.7 µM; in [4] it was above 100 µM; in test [5], 98.6 µM; in test [6] it was 98.6 µM. Further, the concentration for total growth inhibition (TGI) in [7] was 8.32 µM; in test [8] it was 6.96 µM; in [9] it was 25.8 µM; in test [10], above 100 µM.

The GI50 is the concentration at which growth is held to half of that of the control. As usually defined, the TGI is the concentration at which net growth stops. Lower therefore signals greater sensitivity of the cells.
